Data as given in patent US20170042171A1, “METHOD OF HANDLING MANGOES” (AGROFRESH, INC., priority 2011, published 2017).

Legend:
[1] = tested on: mangoes, Tommy Adkins cultivar; test: Pulp firmness of mangoes after MAP bag and/or 1-MCP exposure prior to transport simulation (Example 1); type: in vivo, Mangifera indica
Experimental: (§1) Mangoes were evaluated for peel and pulp firmness, which are commercial measures of mango quality, using the following test procedure: • Determination of peel resistant to penetration (peel firmness) was accomplished using a Chatillon penetrometer (model DPPH-100) equipped with a chisel tip (6 mm wide). • Readings were obtained choosing randomly six fruit from each treatment. Each fruit was placed by the side on the penetrometer and then the tip of the instrument (chisel) was stalled into the fruit (about 8 mm deep). Six fruits per treatment were selected and readings were used for obtaining the average value of peel firmness for each treatment. • For testing flesh firmness, the other side of the fruit selected for testing peel resistant to penetration was used. The side not tested for peel resistance to penetration was peeled using a standard fruit peeler (which removed approximately a 2 mm thick peel tissue section). The total area peeled was approximately five square centimeters. • Immediately after removing the peel, each fruit was placed on the penetrometer and a new value of firmness was obtained using the chisel tip (to a depth of about 8 mm). Average values were calculated using six fruits per treatment.
Fruit was harvested from a commercial mango farm (Mango Rica S.A.) located in Liberia, Guanacaste. Costa Rica on Apr. 7, 2011. […]

[2] = tested on: Mangos, Tommy Atkins variety; test: Pulp firmness of mangoes after 1-MCP at different concentrations with or without modified B bag, shelf-storage simulation (Example 2); type: in vivo, Mangifera indica; details: for Pulp Firmness Difference from Control: 10° C. 15 hours, then ca. 22° C. three days
Experimental: as §1
This experiment utilized a modified version of the “B bag”. Rather than three layers, the bag consisted of two extruded layers in an 80/20 ratio with the following composition:
The film was perforated using a laser to give an average hole diameter of 104 micrometers with 52 perforations per bag in four rows. The OTR of the bag was ca. 370 cc/hour.
Mangos, Tommy Atkins variety imported from Guatemala, were kept at a temperature of 10° C. for three days. Portions of the mangos were subjected to one of eight different treatments; control (no 1-MCP or bag), 1-MCP only at 500 ppb, bag only, and bag plus one of five different 1-MCP application rates (50, 100, 500, 1000, and 2500 ppb). Each mango weighed ca. 1.1 Kg. For those mangos placed in bags, the bag contained four fruits for a total of 4.4 Kg of fruit per bag. The 1-MCP applications were made at a temperature of 10° C. for 15 hours. The control and each treated sample were then kept at room temperature (ca. 22° C.) for three days to simulate shelf-storage. Bags were kept closed during the shelf-storage simulation. Pulp firmness was then determined with the following results: […]

## CC1=CC1 [1-MCP, 1-methylcyclopropene]
[1]; 6 mangoes per bag, 500 ppb 1-MCP for 12 hours prior to transport simulation (10-12° C., 18 days), then 18° C.
  Mango Pulp Firmness Difference (Reported as change from control*): −0.03 Lbs.
[1]; MCP exposure prior to transport simulation
  mango quality based on pulp firmness (in words): did not improve the quality of the mangoes
[2]; Treatment 1: 1-MCP 500 ppb, Bag No
  Pulp Firmness Difference from Control: 0.43 Lb.
[2]; Treatment 3: 1-MCP 50 ppb, Bag Yes
  Pulp Firmness Difference from Control: 2.00 Lb.
[2]; Treatment 4: 1-MCP 100 ppb, Bag Yes
  Pulp Firmness Difference from Control: 2.70 Lb.
[2]; Treatment 5: 1-MCP 500 ppb, Bag Yes
  Pulp Firmness Difference from Control: 3.35 Lb.
[2]; Treatment 6: 1-MCP 1000 ppb, Bag Yes
  Pulp Firmness Difference from Control: 2.60 Lb.
[2]; Treatment 7: 1-MCP 2500 ppb, Bag Yes
  Pulp Firmness Difference from Control: 3.29 Lb.
[2]; sum of 1-MCP 500 ppb alone and bag alone
  expected additive effect of the 1-MCP treatment and MAP bag alone on pulp firmness: 1.96 lb
